From publication PMC5129993, “Everolimus induces Met inactivation by disrupting the FKBP12/Met complex” (Oncotarget, 2016)
pIC50: −log10 of the molar value.

Key:
phospho-p70S6K = assay: Western blot analysis of p70S6K phosphorylation in human cancer cell lines; format: cell-based; details: 24 hours; for phospho-p70S6K: 786-O and MDA-MB-231 cells; for phosphorylation of p70S6K: 786-O EveR and HCT116 cells, 1 μM (siRNA 50 nM)
Description: (§1) Total protein extracts obtained from cell cultures or tumor specimens were resolved by 4-15% SDS-PAGE and probed with anti-human, polyclonal pMet Y1349, polyclonal Met, monoclonal pp70S6K T412 and p70S6K (Merck-Millipore Darmstadt, Germany), monoclonal actin (Sigma-Aldrich, Milan, Italy), monoclonal FKBP12, polyclonal mTOR, Raptor, and Rictor. Co-immunoprecipitation analyses were performed with anti-Met; membranes were blotted with anti-FKBP12. The total lysate from 786-O, 786-O EveR and HCT116 cells served as positive control. Immunoreactive proteins were visualized by enhanced chemiluminescence (Pierce, Rockford, IL, USA). Densitometry was performed with Image J software (NIH, Bethesda, MD, USA).

phospho-Met = assay: Western blot analysis of Met phosphorylation in human cancer cell lines; format: cell-based; details: 24 hours; for Met phosphorylation: 0.5 μM; for phosphorylation of Met: 786-O EveR and HCT116 cells, 1 μM (siRNA 50 nM)
Description: as §1

[1] = test system: everolimus-resistant HCT116 cells; assay: Subcutaneous murine colorectal cancer model (HCT116 xenograft); details: for Median survival: subcutaneous HCT116 xenograft, 10 mice/group
From the text: We subcutaneously xenografted everolimus-resistant HCT116 cells into 50 four- to six-week-old female BALB/c athymic nu+/nu+ (nude) mice (Charles River Laboratories, Milan, Italy). Forty animals were used to carry out the subcutaneous colorectal cancer model experiment; when tumors reached a mean volume of 1 cm^3, 10 animals were euthanized, tumors were divided into 2-mm-sized pieces and microsurgically implanted in the cecum of 40 Balb/C nude mice for the orthotopic experiment. See Supplementary Methods for further details about the surgical procedure and the treatment schedule. […]

[2] = test system: everolimus-resistant HCT116 cells; assay: Orthotopic murine colorectal cancer model (HCT116 in cecum); format: in vivo, Balb/C nude mice; details: orthotopic HCT116, four weeks after tumor implantation
Description: The cecum was then placed
Seven days after implantation, […]
p/6 x larger diameter x (smaller diameter)2. […]
diameter was assessed with ultrasonography (VEVO,
Committee. Primary tumors in the cecum were excised
The final tumor was measured with a caliper surgical site was isolated in a sterile fashion.
J Am Chem Soc. 2003; 125: 8827-8837.
Uncoupling signal transducers from oncogenic MET 6.
2. […] 2000; 25: 217-222.
Unbinding pathways from the glucocorticoid receptor shed 7. Michnick SW, Rosen MK, Wandless TJ, Karplus M, […]
Solution structure of FKBP, a rotamase a naturally occurring, clinically relevant mutant receptor. J enzyme and receptor for FK506 and rapamycin. Science.
3. […] Mustafi SM, LeMaster DM, Hernández G. Differential […]
cytoreductive antitumor activity in vivo.
HADDOCK2.0 on the CAPRI targets. Proteins.
726-733. JR, Soisson SM, Lumb KJ. Structural basis for selective

[3] = test system: T47D cells with Met M1268T mutant; assay: Cell density assay (MTT), Met-transduced T47D; format: cell-based, human
Description: (§2) The percentage of cell density was determined using the 3-(4,5-dimethylthiazol-2-yl)-2,5-diphenyltetrazolium bromide (MTT) assay according to the manufacturer's instructions (Sigma-Aldrich, Milan, Italy). […]
(§3) (iii) an active conformation. The resulting selected Met [Follenzi A, Nat Genet. 2000]. […]
(§4) We used the pRRL.sin.PPT.hCMV.GFP.
(§5) Cα] at the 80 loop level (frame 13). To generate the Met/pre vector as control. […]

[4] = test system: T47D cells with Met Y1235D mutant; assay: Cell density assay (MTT), Met-transduced T47D; format: cell-based, human
Description: as §2, §3, §4, §5

T47D cells with wt Met = assay: Cell density assay (MTT), Met-transduced T47D; format: cell-based, human
Description: as §2, §3, §4, §5

Met Y1230C = target: T1, Met Y1230C (Homo sapiens, UniProt P08581, Y1230C); assay: In vitro Met kinase inhibition assay (ProQinase, radiometric 33PanQinase); format: biochemical
T1 construct: purchased ProQinase GmbH (screening service)
Description: (§6) In vitro Met kinase inhibition assay equilibrated using NAMD2.8 [Phillips JC, J Comput Chem.
(§7) The Met kinase inhibition by everolimus was analyzed 2005], and the final MD simulation was conducted applying […]
(§8) ProQinase (ProQinase GmbH, Freiburg, Germany). Briefly, J Med Chem. 2013].
(§9) -10 - trajectories. The complex was aligned on the Cα atoms of different concentrations (standard range: 3x10M–1x10 Met, while the backbone atoms Root-mean-square deviation 5M; semilog dilutions) against human recombinant wt […]
(§10) All assays were Å. Finally, the representative structure of the most populated performed at the corresponding apparent ATP Km of each cluster was choosen as the final Met/FKBP12 complex. […]

Met D1228N = target: T2, Met D1228N (Homo sapiens, UniProt P08581, D1228N); assay: as above; format: biochemical
T2 construct: purchased ProQinase GmbH (screening service)
Description: as §6, §7, §8, §9, §10

Met Wild-type = target: T3, Met Wild-type (Homo sapiens, UniProt P08581); assay: as above; format: biochemical; details: Met TK Wild-type; 0.3 nM to 10 μM, singlicate; apparent ATP Km
T3 construct: purchased ProQinase GmbH (screening service)
Description: as §6, §7, §8, §9, §10

FKBP12/Met complex = target: T4, FKBP12/Met complex (Homo sapiens, UniProt P62942); assay: Co-immunoprecipitation of FKBP12 with anti-Met antibody; format: cell-based; details: 0.5 μM, 24 hours
T4 construct: immunoprecipitated total cell lysates from everolimus-treated and -untreated 786-O cells; endogenous in cells; host or cells: 786-O (also 786-O EveR and HCT116)
Description: as §1

MDA-MB-231 cells = assay: Cell density assay (MTT); format: cell-based; details: Homo sapiens, MDA-MB-231, 72 hours, read-out: concentration causing 50% reduction of cell density
Description: (§11) The percentage of cell density was determined using the 3-(4,5-dimethylthiazol-2-yl)-2,5-diphenyltetrazolium bromide (MTT) assay according to the manufacturer's instructions (Sigma-Aldrich, Milan, Italy).

MDA-MB-361 cells = assay: Cell density assay (MTT); format: cell-based; details: Homo sapiens, MDA-MB-361, 72 hours, read-out: concentration causing 50% reduction of cell density
Description: as §11

ACHN cells = assay: Cell density assay (MTT); format: cell-based; details: Homo sapiens, 72 hours, read-out: concentration causing 50% reduction of cell density
Description: as §11

PC-9 cells = assay: Cell density assay (MTT); format: cell-based; details: Homo sapiens, PC-9, 72 hours, read-out: concentration causing 50% reduction of cell density
Description: as §11

NCI-H1975 cells = assay: Cell density assay (MTT); format: cell-based; details: Homo sapiens, NCI-H1975, 72 hours, read-out: concentration causing 50% reduction of cell density
Description: as §11

HCT116 cells = assay: Cell density assay (MTT); format: cell-based; details: Homo sapiens, HCT-116; HCT116, data not shown; read-out: concentration causing 50% reduction of cell density
Description: as §11

786-O cells = assay: Cell density assay (MTT); format: cell-based; details: Homo sapiens, 786-0, 72 hours, read-out: concentration causing 50% reduction of cell density
Description: as §11

Met M1250T = target: T5, Met M1250T (Homo sapiens, UniProt P08581, M1250T); assay: In vitro Met kinase inhibition assay (ProQinase, radiometric 33PanQinase); format: biochemical
T5 construct: purchased ProQinase GmbH (screening service)
Description: as §6, §7, §8
(§12) -10 - trajectories. The complex was aligned on the Cα atoms of different concentrations (standard range: 3x10M–1x10 Met, while the backbone atoms Root-mean-square deviation 5M; semilog dilutions) against human recombinant wt
(§13) Met and nine Met mutant protein kinases, and IC values (RMSD) of FKBP12 was measured and used to cluster the 50 trajectories. The cluster analysis was performed using ptraj […]
as §10

Met Y1230D = target: T6, Met Y1230D (Homo sapiens, UniProt P08581, Y1230D); assay: as above; format: biochemical
T6 construct: purchased ProQinase GmbH (screening service)
Description: as §6, §7, §8, §12, §13, §10

Met D1228H = target: T7, Met D1228H (Homo sapiens, UniProt P08581, D1228H); assay: as above; format: biochemical
T7 construct: purchased ProQinase GmbH (screening service)
Description: as §6, §7, §8, §12, §13, §10

Met F1200I = target: T8, Met F1200I (Homo sapiens, UniProt P08581, F1200I); assay: as above; format: biochemical
T8 construct: purchased ProQinase GmbH (screening service)
Description: as §6, §7, §8, §12, §13, §10

Met Y1230H = target: T9, Met Y1230H (Homo sapiens, UniProt P08581, Y1230H); assay: as above; format: biochemical
T9 construct: purchased ProQinase GmbH (screening service)
Description: as §6, §7, §8, §12, §13, §10

Met Y1230A = target: T10, Met Y1230A (Homo sapiens, UniProt P08581, Y1230A); assay: as above; format: biochemical
T10 construct: purchased ProQinase GmbH (screening service)
Description: as §6, §7, §8, §12, §13, §10

[5] = test system: 786-O EveR (everolimus-resistant) cells; assay: Cell density assay (MTT); format: cell-based; details: Homo sapiens, 786-0, data not shown, read-out: concentration causing 50% reduction of cell density
Description: as §2

[6] = day 42, 6 weeks after cell injection, everolimus 5 mg/kg per os, PHA665752 20 mg/kg i.v., five times a week for 2 weeks

T4 sequence (P62942 2-108 limits assumed, one chain of several): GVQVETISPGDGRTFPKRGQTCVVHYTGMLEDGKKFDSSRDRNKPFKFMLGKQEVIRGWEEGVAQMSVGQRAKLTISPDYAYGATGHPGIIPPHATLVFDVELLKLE
T5 sequence (P08581 25-1390 M1250T): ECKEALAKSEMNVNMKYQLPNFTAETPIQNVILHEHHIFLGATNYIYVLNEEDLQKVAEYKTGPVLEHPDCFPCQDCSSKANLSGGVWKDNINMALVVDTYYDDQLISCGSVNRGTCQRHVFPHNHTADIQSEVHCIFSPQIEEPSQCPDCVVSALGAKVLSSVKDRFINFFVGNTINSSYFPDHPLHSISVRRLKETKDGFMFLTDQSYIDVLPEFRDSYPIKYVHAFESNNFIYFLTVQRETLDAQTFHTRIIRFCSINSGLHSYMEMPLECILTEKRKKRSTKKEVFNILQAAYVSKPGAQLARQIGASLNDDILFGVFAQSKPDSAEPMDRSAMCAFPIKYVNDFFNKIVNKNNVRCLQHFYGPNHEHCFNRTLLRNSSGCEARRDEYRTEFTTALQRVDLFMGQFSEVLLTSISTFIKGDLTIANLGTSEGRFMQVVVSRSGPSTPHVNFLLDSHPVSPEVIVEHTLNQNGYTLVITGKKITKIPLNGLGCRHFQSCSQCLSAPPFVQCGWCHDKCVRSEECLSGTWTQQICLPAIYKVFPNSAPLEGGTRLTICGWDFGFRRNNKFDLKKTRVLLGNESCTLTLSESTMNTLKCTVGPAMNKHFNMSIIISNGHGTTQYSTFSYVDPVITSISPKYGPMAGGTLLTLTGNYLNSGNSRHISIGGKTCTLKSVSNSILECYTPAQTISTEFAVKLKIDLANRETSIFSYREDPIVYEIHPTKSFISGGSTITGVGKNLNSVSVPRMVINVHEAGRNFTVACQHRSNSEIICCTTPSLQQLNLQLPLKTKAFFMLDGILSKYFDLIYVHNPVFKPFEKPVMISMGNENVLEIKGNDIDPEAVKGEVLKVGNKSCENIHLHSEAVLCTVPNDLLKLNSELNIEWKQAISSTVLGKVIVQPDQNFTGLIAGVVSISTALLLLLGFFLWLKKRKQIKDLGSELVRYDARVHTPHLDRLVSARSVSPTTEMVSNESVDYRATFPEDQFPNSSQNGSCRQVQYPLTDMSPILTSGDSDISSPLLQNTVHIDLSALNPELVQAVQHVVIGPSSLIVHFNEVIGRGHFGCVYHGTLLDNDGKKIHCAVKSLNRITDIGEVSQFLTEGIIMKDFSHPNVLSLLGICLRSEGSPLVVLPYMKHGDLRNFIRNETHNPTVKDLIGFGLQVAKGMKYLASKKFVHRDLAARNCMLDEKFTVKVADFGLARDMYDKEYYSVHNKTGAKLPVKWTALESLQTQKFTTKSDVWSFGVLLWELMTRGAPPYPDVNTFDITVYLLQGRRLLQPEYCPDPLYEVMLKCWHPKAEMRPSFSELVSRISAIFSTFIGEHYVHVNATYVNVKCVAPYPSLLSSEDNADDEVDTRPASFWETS
T2 sequence (P08581 25-1390 D1228N): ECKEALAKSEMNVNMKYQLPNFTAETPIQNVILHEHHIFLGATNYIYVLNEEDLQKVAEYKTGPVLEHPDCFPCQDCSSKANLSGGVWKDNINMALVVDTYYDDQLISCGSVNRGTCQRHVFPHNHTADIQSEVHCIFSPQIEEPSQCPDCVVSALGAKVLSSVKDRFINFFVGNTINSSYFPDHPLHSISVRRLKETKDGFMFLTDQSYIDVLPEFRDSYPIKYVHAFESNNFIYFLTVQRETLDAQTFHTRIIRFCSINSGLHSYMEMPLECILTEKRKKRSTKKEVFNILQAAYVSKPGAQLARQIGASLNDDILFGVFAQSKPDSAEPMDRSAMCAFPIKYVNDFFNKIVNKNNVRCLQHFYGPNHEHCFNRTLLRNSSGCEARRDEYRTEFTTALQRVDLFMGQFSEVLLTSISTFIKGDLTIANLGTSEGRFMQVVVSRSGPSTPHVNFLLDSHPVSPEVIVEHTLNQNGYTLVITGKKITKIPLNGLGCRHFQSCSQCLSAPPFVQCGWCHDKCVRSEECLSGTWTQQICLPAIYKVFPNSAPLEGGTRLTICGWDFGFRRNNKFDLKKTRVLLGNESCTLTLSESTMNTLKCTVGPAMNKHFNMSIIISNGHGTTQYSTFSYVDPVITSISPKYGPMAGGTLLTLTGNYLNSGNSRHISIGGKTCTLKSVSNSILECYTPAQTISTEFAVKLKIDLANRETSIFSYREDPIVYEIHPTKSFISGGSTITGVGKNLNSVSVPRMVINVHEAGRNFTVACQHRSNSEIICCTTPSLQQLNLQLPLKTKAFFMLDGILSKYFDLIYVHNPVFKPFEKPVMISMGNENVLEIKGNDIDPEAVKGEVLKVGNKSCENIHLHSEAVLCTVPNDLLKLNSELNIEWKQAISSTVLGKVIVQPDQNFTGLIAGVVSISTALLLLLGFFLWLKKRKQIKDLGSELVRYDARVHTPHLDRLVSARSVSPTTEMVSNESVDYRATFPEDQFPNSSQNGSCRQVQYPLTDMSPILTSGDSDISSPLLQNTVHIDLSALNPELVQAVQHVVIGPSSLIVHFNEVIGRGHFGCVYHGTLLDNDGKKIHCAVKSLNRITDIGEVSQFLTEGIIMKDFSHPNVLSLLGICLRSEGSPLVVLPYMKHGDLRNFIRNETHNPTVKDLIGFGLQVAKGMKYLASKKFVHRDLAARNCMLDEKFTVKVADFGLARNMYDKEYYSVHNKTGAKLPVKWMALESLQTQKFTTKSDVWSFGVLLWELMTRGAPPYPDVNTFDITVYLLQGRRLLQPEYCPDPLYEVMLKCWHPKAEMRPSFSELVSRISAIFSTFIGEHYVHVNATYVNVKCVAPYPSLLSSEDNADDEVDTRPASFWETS
T1 sequence (P08581 25-1390 Y1230C): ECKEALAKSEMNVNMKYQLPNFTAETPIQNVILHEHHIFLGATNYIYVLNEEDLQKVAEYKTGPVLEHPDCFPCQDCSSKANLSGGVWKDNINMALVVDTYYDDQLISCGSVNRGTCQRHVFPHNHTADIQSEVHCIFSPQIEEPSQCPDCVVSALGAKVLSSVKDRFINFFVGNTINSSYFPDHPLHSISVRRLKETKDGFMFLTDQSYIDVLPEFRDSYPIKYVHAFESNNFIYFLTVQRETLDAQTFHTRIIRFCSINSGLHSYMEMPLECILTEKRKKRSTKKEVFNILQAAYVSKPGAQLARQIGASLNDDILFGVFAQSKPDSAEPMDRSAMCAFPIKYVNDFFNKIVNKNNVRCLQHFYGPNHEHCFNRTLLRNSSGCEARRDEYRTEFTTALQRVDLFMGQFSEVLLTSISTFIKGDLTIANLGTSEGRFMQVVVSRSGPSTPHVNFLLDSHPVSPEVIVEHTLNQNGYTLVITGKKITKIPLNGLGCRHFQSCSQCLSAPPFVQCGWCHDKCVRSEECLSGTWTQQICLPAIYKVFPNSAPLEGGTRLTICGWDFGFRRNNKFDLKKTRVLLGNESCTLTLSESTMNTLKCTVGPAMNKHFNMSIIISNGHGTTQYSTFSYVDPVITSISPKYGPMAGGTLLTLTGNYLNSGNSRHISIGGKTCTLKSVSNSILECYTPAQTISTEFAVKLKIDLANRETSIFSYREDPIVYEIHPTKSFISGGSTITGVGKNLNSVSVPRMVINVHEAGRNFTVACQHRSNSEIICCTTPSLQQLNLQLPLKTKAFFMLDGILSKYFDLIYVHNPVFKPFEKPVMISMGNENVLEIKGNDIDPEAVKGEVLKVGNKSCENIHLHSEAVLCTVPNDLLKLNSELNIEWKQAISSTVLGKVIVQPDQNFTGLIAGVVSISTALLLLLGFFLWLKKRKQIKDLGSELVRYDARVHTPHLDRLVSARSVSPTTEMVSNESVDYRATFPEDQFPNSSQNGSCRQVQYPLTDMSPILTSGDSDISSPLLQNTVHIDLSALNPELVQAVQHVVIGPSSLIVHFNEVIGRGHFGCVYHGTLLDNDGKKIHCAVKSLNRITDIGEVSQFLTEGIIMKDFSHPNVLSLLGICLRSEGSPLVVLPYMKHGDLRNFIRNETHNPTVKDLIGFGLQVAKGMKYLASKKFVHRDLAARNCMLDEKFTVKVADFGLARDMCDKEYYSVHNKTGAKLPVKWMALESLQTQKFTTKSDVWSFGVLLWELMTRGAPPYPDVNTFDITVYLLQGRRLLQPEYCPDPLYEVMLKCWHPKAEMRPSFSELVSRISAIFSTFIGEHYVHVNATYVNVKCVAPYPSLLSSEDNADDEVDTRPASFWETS

COc1cccc2cc(-c3nc([C@H]4CC[C@H](C(=O)O)CC4)n4ncnc(N)c34)[nH]c12 [OSI-027]
phospho-p70S6K (phospho-p70S6K; 0.5 μM): reduced phospho-p70S6K | Met phosphorylation (phospho-Met; 786-O and MDA-MB-231 cells): neither PKI-587 nor OSI-027 inhibited Met phosphorylation

Cc1[nH]c(/C=C2\C(=O)Nc3ccc(S(=O)(=O)Cc4c(Cl)cccc4Cl)cc32)c(C)c1C(=O)N1CCC[C@@H]1CN1CCCC1 [PHA665752]
phosphorylation of p70S6K (phospho-p70S6K): reduced the phosphorylation of Met and p70S6K | phosphorylation of Met (phospho-Met): reduced the phosphorylation of Met and p70S6K | tumor growth inhibition [1, 6]: 85% | tumor growth inhibition ([1]; end of the experiment, same regimen): 30% | Median survival [1]: 57 days | tumor volume [2]: greatly reduced | tumor weight [2]: greatly reduced | sensitivity to everolimus (cell density) ([3]; T47D Met M1268T, PHA665752 1 μM + everolimus 1 μM, 72 hours, P <0.01): significantly restored sensitivity to everolimus | sensitivity to everolimus (cell density) ([4]; T47D Met Y1235D, PHA665752 1 μM + everolimus 1 μM, 72 hours, P <0.01): significantly restored sensitivity to everolimus | sensitivity to everolimus (cell density) (T47D cells with wt Met; T47D wt Met, PHA665752 1 μM + everolimus 1 μM, 72 hours, P <0.01): significantly restored sensitivity to everolimus

CN(C)C1CCN(C(=O)c2ccc(NC(=O)Nc3ccc(-c4nc(N5CCOCC5)nc(N5CCOCC5)n4)cc3)cc2)CC1 [PKI-587]
phospho-p70S6K (phospho-p70S6K; 0.5 μM): reduced phospho-p70S6K | Met phosphorylation (phospho-Met; 786-O and MDA-MB-231 cells): neither PKI-587 nor OSI-027 inhibited Met phosphorylation

CO[C@H]1C[C@@H]2CC[C@@H](C)[C@@](O)(O2)C(=O)C(=O)N2CCCC[C@H]2C(=O)O[C@H]([C@H](C)C[C@@H]2CC[C@@H](OCCO)[C@H](OC)C2)CC(=O)[C@H](C)/C=C(\C)[C@@H](O)[C@@H](OC)C(=O)[C@H](C)C[C@H](C)/C=C/C=C/C=C/1C [everolimus]
phosphorylation of p70S6K (phospho-p70S6K): did not affect the phosphorylation of Met or p70S6K | p70S6K phosphorylation (phospho-p70S6K; renal, breast and lung everolimus-sensitive cell lines, 0.5 μM): decreased p70S6K phosphorylation | pIC50 (Met Y1230C): < 5.00 | pIC50 (Met D1228N): < 5.00 | pIC50 (Met Wild-type): < 5.00 | phosphorylation of Met (phospho-Met): did not affect the phosphorylation of Met or p70S6K | Met phosphorylation (phospho-Met; renal, breast and lung everolimus-sensitive cell lines): inhibition of Met phosphorylation | tumor growth inhibition [1, 6]: 35% | Median survival [1]: 37.5 days | amount of FKBP12 co-immunoprecipitated with Met (FKBP12/Met complex; 786-O cells): lower | amount of FKBP12 co-immunoprecipitated with Met (FKBP12/Met complex; everolimus-resistant 786-O EveR and HCT116 cells): not reduced | tumor volume [2]: large tumors in the cecum and peritoneum | pIC50 (MDA-MB-231 cells): ≥ 6.30 | pIC50 (MDA-MB-361 cells): ≥ 6.30 | pIC50 (ACHN cells): ≥ 6.30 | pIC50 (PC-9 cells): ≥ 6.30 | pIC50 (NCI-H1975 cells): ≥ 6.30 | pIC50 (HCT116 cells): ≤ 5.30 | pIC50 (786-O cells): ≥ 6.30 | pIC50 ([3]; Homo sapiens, T47D with Met M1268T, read-out: drug concentration causing 50% reduction of cell density): < 6.30 | pIC50 ([4]; Homo sapiens, T47D with Met Y1235D, read-out: drug concentration causing 50% reduction of cell density): < 6.30 | pIC50 (T47D cells with wt Met; Homo sapiens, T47D with wt Met, read-out: drug concentration causing 50% reduction of cell density): < 6.30 | pIC50 (Met M1250T): < 5.00 | pIC50 (Met Y1230D): < 5.00 | pIC50 (Met D1228H): < 5.00 | pIC50 (Met F1200I): < 5.00 | pIC50 (Met Y1230H): < 5.00 | pIC50 (Met Y1230A): < 5.00 | pIC50 [5]: ≤ 5.30
